This is an account of results in article PMC10539439 (Pharmacological Reports, 2023).

For data set [1] the following is noted: 5 mg/kg b.w., i.p.; cited from earlier work.
For data set [2] the following is noted: 5 mg/kg b.w., i.p.; cited from earlier work. This is another data set of the same source.
The nature of data set [3]: Core body temperature of obese rats (implanted logger). The format is in vivo, rat. Particulars: for temperature after administration: hight-fat diet, 5mg/kg, individual rats 1-6. How it is done:
Animals with induced obesity (two more groups) were subcutaneously implanted with a DST micro-HRT heart rate logger (Star-Oddi, Island), which simultaneously measured long-term core temperature. Under general anesthesia (thiopental, 70 mg/kg, ip), the loggers were inserted under the skin in the groin area and sutured with a surgical thread. Forty-eight hours later, the baseline temperature was measured, and at 9:30 AM, 4-OH-Guanabenz was administered ip at a dose of 5 mg/kg b.w. The first measurement was recorded 30 min after the administration of the test compound, and then, the temperature was recorded every hour. After 24 h, the loggers were removed, the temperature data were read, and Mercury software (Star-Oddi Mercury Data Logger PC Software, Iceland) was used to collect and analyze the information obtained. Using this technology, measurements are made without the direct intervention of the researcher; therefore, there is no disturbance in the readings evoked by stress in the animals.

A further data set concerns the target T1, TAAR1 (Homo sapiens, UniProt Q96RJ0).
T1 sequence (Q96RJ0 1-339): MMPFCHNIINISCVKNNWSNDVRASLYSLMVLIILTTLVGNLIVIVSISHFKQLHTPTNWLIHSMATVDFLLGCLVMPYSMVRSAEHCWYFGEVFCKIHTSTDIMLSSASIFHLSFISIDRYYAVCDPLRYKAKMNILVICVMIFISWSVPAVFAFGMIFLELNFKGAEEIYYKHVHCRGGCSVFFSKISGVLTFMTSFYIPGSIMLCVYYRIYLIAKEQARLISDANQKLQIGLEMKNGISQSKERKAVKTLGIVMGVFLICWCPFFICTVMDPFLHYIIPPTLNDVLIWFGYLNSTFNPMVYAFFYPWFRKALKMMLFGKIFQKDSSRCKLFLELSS
The data set can be described thus: Intrinsic activity, Hit Hunter cAMP assay. Format: cell-based. How it is done: The intrinsic activity study at cells with overexpression of TAAR1 (Eurofins, cat. No. 95-0173C2) was carried out at Eurofins Discoveries (Fremont, USA) using the Hit Hunter cAMP method. This assay monitors the activation of a GPCR via Gi and Gs secondary messenger signaling in a homogenous, non-imaging assay format using a technology developed by DiscoverX called Enzyme Fragment Complementation (EFC) with β-galactosidase (β-Gal) as the functional reporter. The enzyme is split into two complementary portions: EA for Enzyme Acceptor and ED for Enzyme Donor. ED is fused to cAMP and in the assay competes with cAMP generated by cells for binding to a cAMP-specific antibody. Active β-Gal is formed by complementation of exogenous EA to any unbound EDcAMP.
cAMP Hunter cell lines were expanded from freezer stocks according to standard procedures. Cells were seeded in a total volume of 20 µL into white-walled, 384-well microplates and incubated at 37 ℃ for the appropriate time prior to testing. For agonist determination, cells were incubated with a sample to induce a response. Media was aspirated from cells and replaced with 15 µL 2:1 HBSS/10 mM Hepes:cAMP XS + Ab reagent. Intermediate dilution of sample stocks was performed to generate 4X samples in assay buffer. 5 µL of 4 × sample was added to cells and incubated at 37 ℃ or room temperature for 30 or 60 min. Vehicle concentration was 1%. […] Microplates were read following signal generation with a PerkinElmer Envision instrument for chemiluminescent signal detection.
A general note: Cyclic AMP is a second messenger, typically raised through Gs and lowered through Gi signalling.

Molecules are shown by their SMILES. Values joined by “and” are separate entries in the source; they are usually repeats but may differ in a detail not shown here. Equal values may be shown once.

With `N=C(N)N/N=C/c1c(Cl)cccc1Cl` [Guanabenz], the “Body weight of obese animals” value in data set [1] is “↓ [17]”. In addition, the Spontaneous activity entry in data set [2] is “↓ [17]”.

A word on the EC50: it is the concentration at which the effect is half-maximal. On to `Cl.N=C(N)NN=Cc1c(Cl)cc(O)cc1Cl` [4-OH-Guanabenz, 2-[(2,6-Dichloro-4-hydroxyphenyl)methylene]hydrazinecarboximidamide Hydrochloride], for which the temperature after administration in data set [3] (hour 1) was 37.56 ⚬C and 36.75 ⚬C and 37.32 ⚬C and 36.19 ⚬C and 36.67 ⚬C and 36.9 ⚬C; in data set [3] (hour 2), 36.89 ⚬C and 36.98 ⚬C and 36.3 ⚬C (2×) and 37.12 ⚬C and 35.67 ⚬C; in data set [3] (hour 3), 36.21 ⚬C and 36.64 ⚬C and 36.08 ⚬C and 35.74 ⚬C and 36.23 ⚬C and 35.01 ⚬C; in data set [3] (hour 4), 36.66 ⚬C and 36.98 ⚬C and 36.64 ⚬C and 35.41 ⚬C and 35.89 ⚬C and 36.48 ⚬C; in data set [3] (hour 5) it was 37 ⚬C and 36.98 ⚬C and 36.95 ⚬C and 36.08 ⚬C and 36.45 ⚬C and 36.9 ⚬C; in data set [3] (hour 6), 37.34 ⚬C and 36.75 ⚬C and 36.87 ⚬C and 36.44 ⚬C and 36.59 ⚬C and 36.9 ⚬C. Further, the temperature after administration was 36.77 ⚬C and 36.64 ⚬C (2×) and 36.19 ⚬C and 36.78 ⚬C and 36.45 ⚬C in data set [3] (hour 7); 37 ⚬C and 36.53 ⚬C and 36.75 ⚬C and 36.42 ⚬C and 36.67 ⚬C and 36.78 ⚬C in data set [3] (hour 8); 37.34 ⚬C and 36.42 ⚬C and 36.64 ⚬C and 36.98 ⚬C and 36.78 ⚬C and 36.67 ⚬C in data set [3] (hour 9); 37.34 ⚬C and 36.5 ⚬C and 36.87 ⚬C and 36.53 ⚬C and 36.67 ⚬C and 37.01 ⚬C in data set [3] (hour 10); 37 ⚬C and 36.64 ⚬C and 36.08 ⚬C and 37.09 ⚬C and 36.67 ⚬C and 36.56 ⚬C in data set [3] (hour 11); 37 ⚬C and 36.53 ⚬C (2×) and 36.87 ⚬C and 36.56 ⚬C and 37.35 ⚬C in data set [3] (hour 12). Besides, the temperature after administration in data set [3] (hour 13) is 37.22 ⚬C and 37.09 ⚬C and 36.75 ⚬C and 36.64 ⚬C and 36.56 ⚬C and 36.67 ⚬C; in data set [3] (hour 14), 37.34 ⚬C and 36.42 ⚬C (3×) and 36.78 ⚬C and 37.12 ⚬C; in data set [3] (hour 15), 37.34 ⚬C and 36.53 ⚬C (2×) and 36.08 ⚬C and 36.56 ⚬C and 36.45 ⚬C; in data set [3] (hour 16), 37.34 ⚬C and 37.09 ⚬C and 36.64 ⚬C and 35.97 ⚬C and 36.34 ⚬C and 36.56 ⚬C; in data set [3] (hour 17), 37 ⚬C and 37.09 ⚬C and 36.53 ⚬C and 36.67 ⚬C and 36.45 ⚬C and 37.23 ⚬C; in data set [3] (hour 18), 37.45 ⚬C and 36.53 ⚬C and 36.3 ⚬C and 37.21 ⚬C and 36.56 ⚬C and 36.34 ⚬C. The temperature after administration in data set [3] (hour 19) is 36.6 ⚬C and 36.75 ⚬C and 36.53 ⚬C and 36.3 ⚬C and 36.67 ⚬C (2×); in data set [3] (hour 20), 37.22 ⚬C and 37.32 ⚬C and 36.19 ⚬C and 35.97 ⚬C and 36.56 ⚬C and 36.23 ⚬C; in data set [3] (hour 21) it was 37.45 ⚬C and 36.08 ⚬C (2×) and 36.19 ⚬C and 36.78 ⚬C and 36.12 ⚬C; in data set [3] (hour 22) it was 36.77 ⚬C and 36.3 ⚬C and 35.86 ⚬C and 36.08 ⚬C and 36.45 ⚬C and 36.12 ⚬C; in data set [3] (hour 23) it was 36.89 ⚬C and 36.3 ⚬C and 36.19 ⚬C and 36.53 ⚬C and 36.34 ⚬C and 36.23 ⚬C; in data set [3] (hour 24), 36.66 ⚬C and 36.64 ⚬C and 36.3 ⚬C and 36.19 ⚬C and 36.78 ⚬C and 35.89 ⚬C. Besides, in data set [3] (obese rats, 5 mg/kg b.w. ip, vs obese control), the “effect on core temperature (in words)” value was “No significant effects on core temperature”. Also, on TAAR1, the “Intrinsic activity at TAAR1 (in words)” value was “weak agonistic activity”. Moreover, the half-maximal effective concentration (EC50) at TAAR1 (agonist, tested up to 10^–4 M, response at 10^–2 and 10^–1 M assumed 90–100% of tyramine, read-out: EC50 calculated after computer simulation) is 331 µM. Further, the “Average Value (raw signal)” value at TAAR1 (cAMP, Agonist, Conc(M) 1e-6) turned out to be 980.00; on TAAR1 (cAMP, Agonist, Conc(M) 1e-5), 1140.00; on TAAR1 (cAMP, Agonist, Conc(M) 0.0001) it was 2200.00. The “Value 1 / Value 2 (raw signal)” value is 960 and 1000 on TAAR1 (cAMP, Agonist, Conc(M) 1e-6); 1080 and 1200 on TAAR1 (cAMP, Agonist, Conc(M) 1e-5); 2200 on TAAR1 (cAMP, Agonist, Conc(M) 0.0001). In addition, the “% Efficacy (of the full agonist tyramine)” value on TAAR1 (cAMP, Agonist, Conc(M) 0.0001 (10^–4 M)) was determined as 23.1%. Besides, on TAAR1 (cAMP, Agonist, Conc(M) 0.0001 (10^–4 M), read-out: % Efficacy (of the full agonist tyramine)), the Emax at 100 µM turned out to be 23%. Also, the “Intrinsic activity at TAAR1” value on TAAR1 (summary table) is “+”.
